According to patent US20020142347A1, “Biosensor” (BIOSENSOR ApS, priority 2000, published 2002):

Columns and labels:
FACI53 [1] = biological target: T1, FACI53 (Bos taurus, UniProt P07107, A54C); test: Fluorescence emission change of FACI-53 on titration with CoA and acyl-CoA esters; assay type: binding, bovine
T1 construct: badan (6-bromoacetyl-2-dimethylaminonaphthalene) fluorophore on the introduced Cys-53; made in house; host or cells: E. coli BL21(DE3)pLysS, pET3a vector
T1 sequence (P07107 2-87 A54C): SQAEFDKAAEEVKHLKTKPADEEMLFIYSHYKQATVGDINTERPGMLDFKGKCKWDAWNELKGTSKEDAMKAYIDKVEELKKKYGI
Experimental: (§1) Quantitative determination of binding affinities (KD) were performed by isothermal titration micro calorimetry as previously described (Faergeman et. al., 1996; Biochemistry 35, 14118-14126). Qualitative evaluation of relative binding affinities were determined by isoelectrical focusing using the Pharmacia Fast Gel system according to the prescriptions given by the manufacture. Fluorescence emission changes induced by acyl-CoA binding to badan modified protein were determined as follows: 5 μl portions of acyl-CoAs were added from stock solutions disolved in binding buffer, (10 mM Hepes, 150 mM NaCL, 1 mM NaHPO4, pH 7.4) containing 3.4 μM Badan derivatized protein to a 1 ml 3.4 μM solution of the Badan derivatized ACBP in the same buffer. The fluorescence emission was measured on a SPEX FLOUROLOG (Industries Inc, Edison N.J., USA) with excitation at 400 nm and emission scan from 400 nm to 550 nm. The concentration of acyl-CoA in the aqueous phase was determined from the fluorescence emission sensitivities at 495 and 470 nm repectively essentially by the method described by (Grynkiewickz et. al.,1985, J. Biol. Chem. 260, 3440-3450) according to which:
Fluorescence titration emission spectra from 415 nm to 550 nm (excitation at 400 nm) were performed for CoA, C4:0-, C8:0-, C12:0-, C16:0-, and C20:0-CoA with all four mutated and badan modified proteins.
Titration of FACI-53 dissolved in binding buffer with the above mentioned acyl-CoA esters produced a smooth downward shift in fluorescence emission maximum from 525 nm when no ligand was present to 508, 503, 490, 492, 496 and 514 with increasing concentrations of CoA, C4:0-, C8:0-, C12:0-, C16:0- and C20:0-CoA respectively.

FACI53 [2] = biological target: T1, FACI53; test: Isoelectrical focusing of acyl-CoA binding to FACI53; set-up: species or system bovine; conditions: ligand in four-fold molar excess over protein
Experimental: All the gels were prepared with ligands (1-7) in four-fold molar excess over protein. […] The protein-ligand complex shifted to a pl around 3.8. Legend: 1: Water, 2: CoA-SH, 3: C4-CoA, 4: C8-CoA, 5: C12-CoA, 6: C16-CoA, 7: C20-CoA, 8: Broad pl Calibration Kit (pH 3-10).
as §1, with “The concentration of acyl-CoA in the aqueous phase was determined from the fluorescence emission sensitivities at 495 and 470 nm repectively essentially by the method described by (Grynkiewickz et. al.,1985, J. Biol. Chem. 260, 3440-3450) according to which:” left out

## CCCCCCCCCCCCCCCC(=O)SCCNC(=O)CCNC(=O)[C@H](O)C(C)(C)COP(=O)(O)OP(=O)(O)OC[C@H]1O[C@@H](n2cnc3c(N)ncnc32)[C@H](O)[C@@H]1OP(=O)(O)O [C16:0-CoA, palmitoyl-CoA]
FACI53 [1]
  Magnitude of emission of FACI-53, fold increase: 1.3 fold
FACI53 [1]; 525 nm when no ligand present, excitation 400 nm
  Fluorescence emission maximum of FACI-53 with ligand: 496 nm
FACI53 [1]; emission at 495 nm
  Relative emission of FACI-53 at 495 nm, fold increase: 2.2 fold
FACI53 [2]
  Binding to FACI53 by isoelectrical focusing: shown to bind
